Test results as given in patent US4110327A, “2,3 Diketo-piperazinocarbonylamino alkanoic acids and derivatives” (Toyama Chemical Co., Ltd., priority 1974, dated 1978).
Values after ≈ are worked out from the molar mass of the structure shown. Values belong to the compound of their own block, whether it stands above or below them.

What was measured:
Format in all cases: cell-based
Proteus vulgaris 3027 = assay: MIC against standard strain, plate method; conditions: Proteus vulgaris 3027, standard strain; unit assumed
Method: (§1) The minimum inhibitory concentrations (MIC) was determined by the plate method disclosed in "Chemotherapy" (Japan), Vol. 16, (1968), pages 98 - 99. The culture medium used was a Heart infusion agar (pH 7.4). The number of the cells per plate used in the inoculum as 10^4 (10^6 cells/ml).

Escherichia coli NIHJ = assay: MIC against standard strain, plate method; conditions: unit assumed
Method: as §1

[1] = tested on: Staphylococcus aureus 209p; assay: MIC against standard strain, plate method; conditions: unit assumed
Method: as §1

[2] = tested on: Pseudomonas aeruginosa I.F.O.; assay: MIC against standard strain, plate method; conditions: unit assumed
Method: as §1

Klebsiella pneumoniae [3] = assay: MIC against standard strain, plate method; conditions: unit assumed
Method: as §1

Pseudomonas aeruginosa = assay: MIC against clinical isolates; conditions: unit assumed
Staphylococcus aureus = assay: MIC against clinical isolates; conditions: unit assumed
Klebsiella pneumoniae [4] = assay: MIC against clinical isolates; conditions: clinical isolate GN 917; unit assumed

Compound: C/C=C/CN1CCN(C(=O)N[C@@H](C(=O)N[C@@H]2C(=O)N3[C@@H]2SC(C)(C)[C@@H]3C(=O)O)c2ccccc2)CC1=O [compound 28]
MIC (Proteus vulgaris 3027): 3.13 µg/mL (≈ 5.91 µM) | MIC (Escherichia coli NIHJ): < 1.57 µg/mL | MIC [1]: < 1.57 µg/mL | MIC [2]: 25 µg/mL (≈ 47.2 µM) | MIC (Klebsiella pneumoniae [3]): 25 µg/mL (≈ 47.2 µM)

Compound: CCCCCCN1CCN(C(=O)N[C@@H](C(=O)N[C@@H]2C(=O)N3[C@@H]2SC(C)(C)[C@@H]3C(=O)O)c2ccccc2)CC1=O [compound 29]
MIC (Proteus vulgaris 3027): 3.13 µg/mL (≈ 5.59 µM) | MIC (Escherichia coli NIHJ): < 1.57 µg/mL | MIC [1]: 3.13 µg/mL (≈ 5.59 µM) | MIC [2]: 12.5 µg/mL (≈ 22.3 µM) | MIC (Klebsiella pneumoniae [3]): 3.13 µg/mL (≈ 5.59 µM)

Compound: CCCCCCCCCCCCN1CCN(C(=O)N[C@@H](C(=O)N[C@@H]2C(=O)N3[C@@H]2SC(C)(C)[C@@H]3C(=O)O)c2ccccc2)CC1=O [compound 31]
MIC (Proteus vulgaris 3027): < 1.57 µg/mL | MIC (Escherichia coli NIHJ): < 1.57 µg/mL | MIC [1]: < 1.57 µg/mL | MIC [2]: 12.5 µg/mL (≈ 19.4 µM) | MIC (Klebsiella pneumoniae [3]): 6.25 µg/mL (≈ 9.71 µM)

MIC (Proteus vulgaris 3027): 3.13 µg/mL (≈ 5.26 µM) | MIC (Escherichia coli NIHJ): < 1.57 µg/mL | MIC [1]: < 1.57 µg/mL | MIC [2]: 50 µg/mL (≈ 84.1 µM) | MIC (Klebsiella pneumoniae [3]): 6.25 µg/mL (≈ 10.5 µM)
Compound: CC1(C)S[C@@H]2[C@H](NC(=O)[C@H](NC(=O)N3CCN(C(=O)Nc4ccccc4)C(=O)C3)c3ccccc3)C(=O)N2[C@H]1C(=O)O [compound 33]

Compound: CC1(C)S[C@@H]2[C@H](NC(=O)[C@H](NC(=O)N3CC(=O)N(C(=O)c4ccccc4)CC3=O)c3ccccc3)C(=O)N2[C@H]1C(=O)O [compound 34]
MIC (Proteus vulgaris 3027): 50 µg/mL (≈ 84.2 µM) | MIC (Escherichia coli NIHJ): 3.13 µg/mL (≈ 5.27 µM) | MIC [1]: 1.57 µg/mL (≈ 2.64 µM) | MIC [2]: 100 µg/mL (≈ 168 µM) | MIC (Klebsiella pneumoniae [3]): 50 µg/mL (≈ 84.2 µM)

Compound: CC1(C)S[C@@H]2[C@H](NC(=O)[C@H](NC(=O)N3CC(=O)N(Cc4ccccc4)CC3=O)c3ccccc3)C(=O)N2[C@H]1C(=O)O [compound 35]
MIC (Proteus vulgaris 3027): 25 µg/mL (≈ 43.1 µM) | MIC (Escherichia coli NIHJ): 6.25 µg/mL (≈ 10.8 µM) | MIC [1]: 1.57 µg/mL (≈ 2.71 µM) | MIC [2]: 100 µg/mL (≈ 173 µM) | MIC (Klebsiella pneumoniae [3]): 25 µg/mL (≈ 43.1 µM)

Compound: CC1(C)S[C@@H]2[C@H](NC(=O)[C@H](NC(=O)N3CCN(CCCl)C(=O)C3=O)c3ccccc3)C(=O)N2[C@H]1C(=O)O [compound 44]
MIC (Proteus vulgaris 3027): < 1.57 µg/mL | MIC (Escherichia coli NIHJ): < 1.57 µg/mL | MIC [1]: < 1.57 µg/mL | MIC [2]: 6.25 µg/mL (≈ 11.3 µM) | MIC (Klebsiella pneumoniae [3]): < 1.57 µg/mL

Compound: CCCCCCCCN1CCN(C(=O)NC(C(=O)NC2C(=O)N3C2SC(C)(C)C3C(=O)OCCN2CCOCC2)c2ccccc2)C(=O)C1=O (centres unmarked) [compound 56]
MIC (Proteus vulgaris 3027): 0.79 µg/mL (≈ 1.11 µM) | MIC (Escherichia coli NIHJ): < 0.4 µg/mL | MIC [1]: < 0.4 µg/mL | MIC [2]: 12.5 µg/mL (≈ 17.5 µM) | MIC (Klebsiella pneumoniae [3]): 1.57 µg/mL (≈ 2.2 µM)

MIC (Proteus vulgaris 3027): 3.13 µg/mL (≈ 6.19 µM) | MIC (Escherichia coli NIHJ): < 0.79 µg/mL | MIC [1]: < 0.79 µg/mL | MIC [2]: 12.5 µg/mL (≈ 24.7 µM) | MIC (Klebsiella pneumoniae [3]): 12.5 µg/mL (≈ 24.7 µM)
Compound: CN1CCN(C(=O)NC(C(=O)NC2C(=O)N3C2SC(C)(C)C3C(=O)O)C2=CCC=CC2)C(=O)C1=O (centres unmarked) [compound 57]

MIC (Proteus vulgaris 3027): 3.13 µg/mL (≈ 6.14 µM) | MIC (Escherichia coli NIHJ): < 1.57 µg/mL | MIC [1]: < 1.57 µg/mL | MIC [2]: 12.5 µg/mL (≈ 24.5 µM) | MIC (Klebsiella pneumoniae [3]): 25 µg/mL (≈ 49.1 µM)
Compound: CN1CCN(C(=O)NC(C(=O)N[C@@H]2C(=O)N3[C@@H]2SC(C)(C)[C@@H]3C(=O)O)c2cccs2)C(=O)C1=O (some centres unmarked) [compound 58]

MIC (Proteus vulgaris 3027): 3.13 µg/mL (≈ 6.39 µM) | MIC (Escherichia coli NIHJ): < 1.57 µg/mL | MIC [1]: < 1.57 µg/mL | MIC [2]: 25 µg/mL (≈ 51.1 µM) | MIC (Klebsiella pneumoniae [3]): 200 µg/mL (≈ 409 µM)
Compound: CC1(C)SC2C(NC(=O)C(NC(=O)N3CCNC(=O)C3=O)c3ccccc3)C(=O)N2C1C(=O)O (centres unmarked) [compound 59]

MIC (Proteus vulgaris 3027): < 1.57 µg/mL | MIC (Escherichia coli NIHJ): < 0.79 µg/mL | MIC [1]: < 0.79 µg/mL | MIC [2]: 25 µg/mL (≈ 38.8 µM) | MIC (Klebsiella pneumoniae [3]): 0.79 µg/mL (≈ 1.23 µM)
Compound: CCN1CC(C)N(C(=O)NC(C(=O)NC2C(=O)N3C(C(=O)O)=C(CSc4nnnn4C)CSC23)c2ccccc2)C(=O)C1=O (centres unmarked) [compound 66]

MIC (Proteus vulgaris 3027): 12.5 µg/mL (≈ 21.2 µM) | MIC (Escherichia coli NIHJ): < 0.79 µg/mL | MIC [1]: 6.25 µg/mL (≈ 10.6 µM) | MIC [2]: 100 µg/mL (≈ 170 µM) | MIC (Klebsiella pneumoniae [3]): 3.13 µg/mL (≈ 5.31 µM)
Compound: CCN1CCN(C(=S)NC(C(=O)NC2C(=O)N3C(C(=O)O)=C(COC(C)=O)CSC23)c2ccccc2)C(=O)C1=O (centres unmarked) [compound 67]

Compound: CN1CCN(C(=O)N[C@@H](C(=O)N[C@@H]2C(=O)N3C(C(=O)[O-])=C(C[n+]4ccccc4)CS[C@H]23)c2ccccc2)C(=O)C1=O [compound 68]
MIC (Pseudomonas aeruginosa; clinical isolate GN 82): 6.25 µg/mL (≈ 10.8 µM) | MIC (Pseudomonas aeruginosa; clinical isolate GN 163): 12.5 µg/mL (≈ 21.6 µM) | MIC (Pseudomonas aeruginosa; clinical isolate GN 221): 3.13 µg/mL (≈ 5.41 µM) | MIC (Pseudomonas aeruginosa; clinical isolate GN 244): 25 µg/mL (≈ 43.2 µM) | MIC (Pseudomonas aeruginosa; clinical isolate GN 376): 12.5 µg/mL (≈ 21.6 µM) | MIC (Pseudomonas aeruginosa; clinical isolate GN 383): 12.5 µg/mL (≈ 21.6 µM) | MIC (Pseudomonas aeruginosa; clinical isolate GN 1035): 50 µg/mL (≈ 86.4 µM) | MIC (Pseudomonas aeruginosa; clinical isolate GN 1091): 12.5 µg/mL (≈ 21.6 µM) | MIC (Pseudomonas aeruginosa; clinical isolate GN 2565): 50 µg/mL (≈ 86.4 µM) | MIC (Pseudomonas aeruginosa; clinical isolate GN 2987): 12.5 µg/mL (≈ 21.6 µM) | MIC (Pseudomonas aeruginosa; clinical isolate S-1): 25 µg/mL (≈ 43.2 µM) | MIC (Pseudomonas aeruginosa; clinical isolate S-2): 25 µg/mL (≈ 43.2 µM) | MIC (Pseudomonas aeruginosa; clinical isolate S-3): 25 µg/mL (≈ 43.2 µM) | MIC (Pseudomonas aeruginosa; clinical isolate S-4): 25 µg/mL (≈ 43.2 µM) | MIC (Staphylococcus aureus; clinical isolate F-1): 1.56 µg/mL (≈ 2.7 µM) | MIC (Staphylococcus aureus; clinical isolate F-2): 1.56 µg/mL (≈ 2.7 µM) | MIC (Staphylococcus aureus; clinical isolate F-3): 0.78 µg/mL (≈ 1.35 µM) | MIC (Staphylococcus aureus; clinical isolate F-4): 6.25 µg/mL (≈ 10.8 µM) | MIC (Staphylococcus aureus; clinical isolate F-5): 0.78 µg/mL (≈ 1.35 µM) | MIC (Staphylococcus aureus; clinical isolate MS 8588): 1.56 µg/mL (≈ 2.7 µM) | MIC (Staphylococcus aureus; clinical isolate MS 8596): 1.56 µg/mL (≈ 2.7 µM) | MIC (Staphylococcus aureus; clinical isolate MS 8619): 0.78 µg/mL (≈ 1.35 µM) | MIC (Staphylococcus aureus; clinical isolate MS 8684): 1.56 µg/mL (≈ 2.7 µM) | MIC (Staphylococcus aureus; clinical isolate MS 8713): 3.13 µg/mL (≈ 5.41 µM) | MIC (Proteus vulgaris 3027): 1.57 µg/mL (≈ 2.71 µM) | MIC (Escherichia coli NIHJ): < 0.79 µg/mL | MIC [1]: 1.57 µg/mL (≈ 2.71 µM) | MIC [2]: 12.5 µg/mL (≈ 21.6 µM) | MIC (Klebsiella pneumoniae [3]): < 0.79 µg/mL | MIC (Klebsiella pneumoniae [4]): 1.56 µg/mL (≈ 2.7 µM)
